SMILES strings stand for the structures.

Test [1] addresses T1, CETP (Homo sapiens, UniProt P11597).
T1 construct: The donor lipoprotein obtained above was added to plasma of healthy subject; from tissue; host or cells: whole plasma of healthy subject
T1 sequence (P11597 18-493): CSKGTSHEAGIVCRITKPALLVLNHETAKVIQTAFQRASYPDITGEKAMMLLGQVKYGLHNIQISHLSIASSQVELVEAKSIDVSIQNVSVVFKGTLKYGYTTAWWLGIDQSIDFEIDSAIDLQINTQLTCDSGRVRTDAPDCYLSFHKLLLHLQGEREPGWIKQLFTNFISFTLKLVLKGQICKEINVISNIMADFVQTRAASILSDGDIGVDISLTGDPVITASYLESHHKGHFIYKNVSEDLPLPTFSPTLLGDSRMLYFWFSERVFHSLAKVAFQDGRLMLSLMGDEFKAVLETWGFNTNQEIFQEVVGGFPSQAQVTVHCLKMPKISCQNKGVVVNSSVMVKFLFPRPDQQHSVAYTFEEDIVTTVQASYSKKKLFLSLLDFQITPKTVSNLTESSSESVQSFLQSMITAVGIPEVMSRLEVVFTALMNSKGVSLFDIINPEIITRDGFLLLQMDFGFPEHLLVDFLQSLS
The test can be described thus: Inhibitory effect in vitro on CETP activity in total plasma. The test is classed as biochemical. Particulars: plasma of healthy subject with [3H]CE-HDL3, 37° C., 4 hr; average values. Put shortly:
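Healthy-donor plasma spiked with [3H]cholesteryl ester-labelled HDL3 (1,000 dpm/μL) was incubated with compound (DMF vehicle) for 4 hr at 37 °C or 4 °C. HDL was separated by MgCl2/dextran sulfate precipitation and supernatant radioactivity counted. IC50 is the concentration giving 50% inhibition of CETP activity.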

The test system of test [2] is CETP. In words: Inhibitory effect exo vivo on CETP activity in total plasma of normal hamster. Particulars: single oral dose 3 mg/kg, blood taken 4 hr after administration, average values. Here is the method: Potassium bromide (KBr) was added to plasma (40 mL) of healthy subject and the mixture was adjusted to have a specific density d=1.125 g/mL. The mixture was subjected to density gradient centrifugation (227,000×g, 4° C., 17 hr) and a fraction showing a specific density of d>1.125 g/mL (HDL3 fraction) was harvested. The obtained fraction was dialyzed against PBS solution [10 mmol/L Na2HPO4; 10 mmol/L NaH2PO4; 0.15 mol/L NaCl; […] (pH 7.4)]. Then, tritium-labeled cholesterol (37 MBq) was dissolved in 95% ethanol, gradually added to the above-mentioned HDL3 fraction with stirring and incubated at 37° C. for 18 hr. [By this operation, tritium-labeled cholesterol was esterified by the action of lecithin acyl transferase (LCAT) present on the HDL3 surface and taken up into HDL3 as tritium-labeled cholesteryl ester ([^3H]CE)]. After incubation, KBr was added, the mixture was adjusted to have a specific density d=1.21 g/mL, subjected to density gradient centrifugation (227,000×g, 4° C., 17 hr) and a fraction of specific density […] was harvested. The obtained fraction was dialyzed against the aforementioned PBS solution to give HDL3 incorporating [^3H]CE ([^3H]CE-HDL3, specific density: 1.125<d<1.21, specific activity: 10,000 dpm/μL), which was used as a donor lipoprotein.
(§1) The compound of the present invention was suspended in 0.5% methyl cellulose solution and orally administered once to a healthy hamster with a plastic gavage needle. Blood was taken at 2 or 4 hr after the administration and CETP activity in plasma was measured according to the following method.
The donor lipoprotein obtained above was added to hamster plasma (100 μL) to prepare [^3H]CE-HDL3-containing plasma (ca. 1,000 dpm/μL). The [^3H]CE-HDL3-containing plasma was dispensed to two microtubes by 25 μL each, and one was incubated at 37° C. and the other was incubated at 4° C. for 4 hr each. After ice-cooling, TBS solution (50 μl) containing 1 mol/L magnesium chloride and 2% dextran sulfate was added to each microtube and the mixture was thoroughly stirred. After keeping at […] for 30 min, the mixture was centrifuged (10,000×g, 4° C., 20 min), and the radioactivity in the obtained supernatant (HDL fraction) was measured with a liquid scintillation counter. The radioactivity of the [^3H]CE-HDL3-containing plasma was measured with a liquid scintillation counter, and taken as the total radioactivity. The transfer rate of [^3H]CE was calculated from the following formula using the total radioactivity (Total count), radioactivity by 37° C. incubation (37° C. count) and radioactivity by 4° C. incubation (4° C. count) of the sample of each individual and taken as the CETP activity. CETP activity(transfer ratio (%))={[(4° C. count)−(37° C. count)]/(Total count)}×100
The CETP activity inhibitory ratio of each compound administration group based on the CETP activity of the solvent administration group as 100% was calculated from the following formula and expressed in %.
CETP activity inhibitory ratio (%)=100−[(CETP activity of each compound administration group)/(CETP activity of solvent administration group)×100]

The subject of test [3] is HDL cholesterol. In words: Blood HDL cholesterol increasing effect in normal hamster. The class given is in vivo. Particulars: single oral dose 3 mg/kg, versus solvent group, average values; for HDL cholesterol increase content (%) 4 (hr later): 4 hr after administration; for HDL cholesterol increase content (%) 8 (hr later): 8 hr after administration. Here is the method:
as §1
To the plasma (40 μL) obtained from the above-mentioned animal at 4 or 8 hr after the administration was added 15% polyethylene glycol solution (40 μL) and the mixture was thoroughly stirred. After keeping at room temperature for 10 min, the mixture was centrifuged (10,000×g, 4° C., 20 min) and the cholesterol content (HDL cholesterol content) of the obtained supernatant (HDL fraction) was measured. The increase ratio of the HDL cholesterol content of each compound administration group when the HDL cholesterol content of the solvent administration group as 100% was calculated from the following formula and expressed in %. HDL cholesterol increase ratio(%)=[(HDL cholesterol content of each compound administration group/HDL cholesterol content of solvent administration group)×100]−100

Test [4] can be described thus: Concomitant use test with simvastatin in rabbits on high cholesterol food. Particulars: high cholesterol food for 15 days with simvastatin (0.002%) and/or Example 168 (0.2%), control group = 100%. The class given is in vivo, Japanese white rabbits. From the text:
For the experiment, 10-week-old male Japanese white rabbits (manufactured by KITAYAMA LABES Co., Ltd.) were used. The animal was acclimated on normal food (RC-4, manufactured by Oriental Bio-Service Co.) and fasted for 24 hr and a high cholesterol food (0.25% cholesterol-added RC-4, manufactured by Oriental Bio-Service Co.) was given by 100 g/day per rabbit (preliminary feeding) for 3 days. On the next day of day 3 of preliminary feeding, blood was taken from the auricular artery before feeding, and the animals were grouped by 6 rabbits per group based on the parameters (HDL cholesterol content, total cholesterol content, triglyceride content) of plasma and body weight.
Foods were prepared (manufactured by Oriental Bio-Service Co.) by adding simvastatin (0.002%), compound (0.2%) of Example 168, or simvastatin (0.002%)+compound (0.2%) of Example 168 to a high cholesterol food, and each food was given to the grouped animals by 100 g/day per rabbit for 15 days. At 8 hr after feeding on day 15, the total blood was taken from the carotid artery under anesthesia, HDL cholesterol content, total cholesterol content and ApoA-I content in plasma were measured. The arteriosclerosis index was calculated from [(total cholesterol content-HDL cholesterol content)/HDL cholesterol content]. Furthermore, the HDL3 fraction was separated from plasma by ultracentrifugation and the cholesterol content of the fraction was measured. In Table, arteriosclerotic index, ApoA-1 content and HDL3 cholesterol content are shown based on the value of the control group as 100%.

With `CCN(C[C@H]1CC[C@H](CC(=O)O)CC1)c1ccc(OC(F)(F)F)cc1CN(Cc1cc(C(F)(F)F)cc(C(F)(F)F)c1)c1nnn(C)n1.Cl` [Example 115, trans-(4-{[N-(2-{[N′-[3,5-bis(trifluoromethyl)benzyl]-N′-(2-methyl-2H-tetrazol-5-yl)amino]methyl}-4-trifluoromethoxyphenyl)-N-ethylamino]methyl}cyclohexyl)acetic acid hydrochloride], in test [1], the IC50 worked out at 0.09 µM. Also, the “CETP activity (%) 4 (hr later)” value in test [2] was 62.1%. In test [3], the “HDL cholesterol increase content (%) 4 (hr later)” value turned out to be 23.3% and the “HDL cholesterol increase content (%) 8 (hr later)” value turned out to be 30.7%.

`CCN(C[C@H]1CC[C@H](CC(=O)O)CC1)c1ccc(C(F)(F)F)cc1CN(Cc1cc(C(F)(F)F)cc(C(F)(F)F)c1)c1nnn(C)n1.Cl` [Example 118, trans-(4-{[N-(2-{[N′-[3,5-bis(trifluoromethyl)benzyl]-N′-(2-methyl-2H-tetrazol-5-yl)amino]methyl}-4-trifluoromethylphenyl)-N-ethylamino]methyl}cyclohexyl)acetic acid hydrochloride] registered an IC50 in test [1] of 0.09 µM. For the same compound, the “CETP activity (%) 4 (hr later)” value in test [2] was found to be 55.4%. Moreover, in test [3], the “HDL cholesterol increase content (%) 4 (hr later)” value is 21.1% and the “HDL cholesterol increase content (%) 8 (hr later)” value was found to be 31.7%.

Take `CCN(C[C@H]1CC[C@H](CC(=O)O)CC1)c1cc(C)c(C(F)(F)F)cc1CN(Cc1cc(C(F)(F)F)cc(C(F)(F)F)c1)c1nnn(C)n1.Cl` [Example 142, trans-(4-{[N-(2-{[N′-[3,5-bis(trifluoromethyl)benzyl]-N′-(2-methyl-2H-tetrazol-5-yl)amino]methyl}-5-methyl-4-trifluoromethylphenyl)-N-ethylamino]methyl}cyclohexyl)acetic acid hydrochloride]: the IC50 in test [1] was found to be 0.06 µM. Besides, the “CETP activity (%) 4 (hr later)” value in test [2] is listed as 71.6%. In addition, in test [3], the “HDL cholesterol increase content (%) 4 (hr later)” value turned out to be 20.3% and the “HDL cholesterol increase content (%) 8 (hr later)” value was determined as 31.9%.

Compound `CCN(C[C@H]1CC[C@H](CC(=O)O)CC1)c1cc(C(F)(F)F)c(C)cc1CN(Cc1cc(C(F)(F)F)cc(C(F)(F)F)c1)c1nnn(C)n1.Cl` [Example 143, trans-(4-{[N-(2-{[N′-[3,5-bis(trifluoromethyl)benzyl]-N′-(2-methyl-2H-tetrazol-5-yl)amino]methyl}-4-methyl-5-trifluoromethylphenyl)-N-ethylamino]methyl}cyclohexyl)acetic acid hydrochloride] gave an IC50 in test [1] of 0.1 µM. Moreover, the “CETP activity (%) 4 (hr later)” value in test [2] is 42.2%. Further, in test [3], the “HDL cholesterol increase content (%) 4 (hr later)” value is 17.0% and the “HDL cholesterol increase content (%) 8 (hr later)” value was 21.3%.

With `CCCN(C[C@H]1CC[C@H](CC(=O)O)CC1)c1ccc(C(F)(F)F)cc1CN(Cc1cc(C(F)(F)F)cc(C(F)(F)F)c1)c1nnn(C)n1.Cl` [Example 154, trans-(4-{[N-(2-{[N′-[3,5-bis(trifluoromethyl)benzyl]-N′-(2-methyl-2H-tetrazol-5-yl)amino]methyl}-4-trifluoromethylphenyl)-N-propylamino]methyl}cyclohexyl)acetic acid hydrochloride], in test [2], the “CETP activity (%) 4 (hr later)” value is 64.2%. Moreover, in test [3], the “HDL cholesterol increase content (%) 4 (hr later)” value came out at 13.3% and the “HDL cholesterol increase content (%) 8 (hr later)” value was 22.4%.

For the compound `CCCN(C[C@H]1CC[C@H](CC(=O)O)CC1)c1cc(C)c(C(F)(F)F)cc1CN(Cc1cc(C(F)(F)F)cc(C(F)(F)F)c1)c1nnn(C)n1.Cl` [Example 157, trans-(4-{[N-(2-{[N′-[3,5-bis(trifluoromethyl)benzyl]-N′-(2-methyl-2H-tetrazol-5-yl)amino]methyl}-5-methyl-4-trifluoromethylphenyl)-N-propylamino]methyl}cyclohexyl)acetic acid hydrochloride], in test [2], the “CETP activity (%) 4 (hr later)” value is recorded as 80.4%. For the same compound, in test [3], the “HDL cholesterol increase content (%) 4 (hr later)” value was determined as 17.9% and the “HDL cholesterol increase content (%) 8 (hr later)” value was 27.1%.

For the compound `CCCN(C[C@H]1CC[C@H](CC(=O)O)CC1)c1ccc(OC(F)(F)F)cc1CN(Cc1cc(C(F)(F)F)cc(C(F)(F)F)c1)c1nnn(C)n1.Cl` [Example 158, trans-(4-{[N-(2-{[N′-[3,5-bis(trifluoromethyl)benzyl]-N′-(2-methyl-2H-tetrazol-5-yl)amino]methyl}-4-trifluoromethoxyphenyl)-N-propylamino]methyl}cyclohexyl)acetic acid hydrochloride], the “CETP activity (%) 4 (hr later)” value in test [2] was determined as 55.6%. In addition, in test [3], the “HDL cholesterol increase content (%) 4 (hr later)” value amounted to 14.8% and the “HDL cholesterol increase content (%) 8 (hr later)” value stood at 23.7%.

As to `CCN(C[C@H]1CC[C@H](CC(=O)O)CC1)c1cc(C)c(C(F)(F)F)cc1CN(Cc1cc(C(F)(F)F)cc(C(F)(F)F)c1)c1nnn(C)n1` [Example 168, trans-(4-{[N-(2-{[N′-[3,5-bis(trifluoromethyl)benzyl]-N′-(2-methyl-2H-tetrazol-5-yl)amino]methyl}-5-methyl-4-trifluoromethylphenyl)-N-ethylamino]methyl}cyclohexyl)acetic acid methanesulfonate], the “Arteriosclerotic index (%)” value in test [4] stood at 82%. Moreover, the “HDL3 cholesterol content (%)” value in test [4] (plasma HDL3 fraction) amounted to 141%. Further, the “ApoA-I content (%)” value in test [4] (plasma) came out at 114%.

The record behind these values is patent US7807701B2, “Dibenzylamine compounds and pharmaceutical use thereof” (Japan Tobacco Inc., priority 2002, dated 2010).
